ChEMBL document CHEMBL1201862, “PubChem BioAssay data set” (2004)
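96-well plates; 48 h exposure; 5 concentrations. Endpoints by linear interpolation between flanking doses. Not reached: highest tested concentration assigned. GI50 marks 50% less growth.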 The source made the active and inactive calls. No stated cut-off is given here; in the data, active = GI50 up to about 1.1 µM and inactive = higher.

Key:
Experiment in all cases: NCI-60 cell line screen, 48 h
T47D = system: T47D
MDA-N = system: MDA-N
MOLT-4 = system: MOLT-4
NCI/ADR-RES = system: NCI/ADR-RES
ACHN = system: ACHN
NCI-H23 = system: NCI-H23
RXF 393 = system: RXF 393
NCI-H226 = system: NCI-H226
COLO 205 = system: COLO 205
HCC 2998 = system: HCC 2998
786-0 = system: 786-0
HCT-116 = system: HCT-116
NCI-H522 = system: NCI-H522
UACC-62 = system: UACC-62
OVCAR-8 = system: OVCAR-8
M14 = system: M14
UO-31 = system: UO-31
Malme-3M = system: Malme-3M
Hs-578T = system: Hs-578T
PC-3 = system: PC-3
SF-295 = system: SF-295
SNB-75 = system: SNB-75
HCT-15 = system: HCT-15
SR = system: SR
RPMI-8226 = system: RPMI-8226
CAKI-1 = system: CAKI-1
HOP-92 = system: HOP-92
LOX IMVI = system: LOX IMVI
CCRF-CEM = system: CCRF-CEM
HL-60 = system: HL-60
SK-OV-3 = system: SK-OV-3
OVCAR-4 = system: OVCAR-4
A549 = system: A549
SN12C = system: SN12C
SF-268 = system: SF-268
MDA-MB-435 = system: MDA-MB-435
SK-MEL-28 = system: SK-MEL-28
HT-29 = system: HT-29
HOP-62 = system: HOP-62
EKVX = system: EKVX
DU-145 = system: DU-145
SNB-19 = system: SNB-19
TK-10 = system: TK-10
IGROV-1 = system: IGROV-1
SF-539 = system: SF-539
KM12 = system: KM12
SW-620 = system: SW-620
K562 = system: K562
MDA-MB-231 = system: MDA-MB-231
BT-549 = system: BT-549
MCF7 = system: MCF7
NCI-H460 = system: NCI-H460
UACC-257 = system: UACC-257
SK-MEL-5 = system: SK-MEL-5
SK-MEL-2 = system: SK-MEL-2
U-251 = system: U-251
OVCAR-3 = system: OVCAR-3
A498 = system: A498
OVCAR-5 = system: OVCAR-5

Measured: GI50

CC(=O)OCc1ccc(-c2nc(C#N)c(N)o2)o1
inactive: T47D > 10 µM | MDA-N > 10 µM | MOLT-4 > 10 µM | NCI/ADR-RES > 10 µM | ACHN > 10 µM | NCI-H23 > 10 µM | RXF 393 > 10 µM | NCI-H226 > 10 µM | COLO 205 > 10 µM | HCC 2998 > 10 µM | 786-0 > 10 µM | HCT-116 > 10 µM | NCI-H522 > 10 µM | UACC-62 > 10 µM | OVCAR-8 > 10 µM | M14 > 10 µM | UO-31 > 10 µM | Malme-3M > 10 µM | Hs-578T > 10 µM | PC-3 > 10 µM | SF-295 > 10 µM | SNB-75 > 10 µM | SR > 10 µM | RPMI-8226 > 10 µM | CAKI-1 > 10 µM | HOP-92 > 10 µM | LOX IMVI > 10 µM | CCRF-CEM > 10 µM | HL-60 > 10 µM | SK-OV-3 > 10 µM | OVCAR-4 > 10 µM | A549 > 10 µM | SN12C > 10 µM | SF-268 > 10 µM | MDA-MB-435 > 10 µM | SK-MEL-28 > 10 µM | HT-29 > 10 µM | HOP-62 > 10 µM | EKVX > 10 µM | DU-145 > 10 µM | SNB-19 > 10 µM | TK-10 > 10 µM | IGROV-1 > 10 µM | SF-539 > 10 µM | KM12 > 10 µM | SW-620 > 10 µM | K562 > 10 µM | MDA-MB-231 > 10 µM | BT-549 > 10 µM | MCF7 > 10 µM | NCI-H460 > 10 µM | UACC-257 > 10 µM | SK-MEL-5 > 10 µM
> 10 µM: HCT-15

O=C1CC2(CCC(O)(c3cccc4ccccc34)C(C(=O)c3cccc4ccccc34)C2)C(=O)c2ccccc2N1 (configuration not stated)
26.4 µM: HCT-15
inactive: T47D 34.5 µM | MDA-N 18.4 µM | MOLT-4 25.9 µM | NCI/ADR-RES > 100 µM | NCI-H23 62.2 µM | RXF 393 4.1 µM | NCI-H226 > 100 µM | COLO 205 29.6 µM | SK-MEL-2 > 100 µM | HCC 2998 26.1 µM | HCT-116 23.6 µM | UACC-62 81.5 µM | OVCAR-8 > 100 µM | M14 29.8 µM | UO-31 23.7 µM | U-251 11.1 µM | Malme-3M > 100 µM | Hs-578T 6.78 µM | PC-3 91 µM | SF-295 12.6 µM | SNB-75 10.7 µM | SR 14.2 µM | CAKI-1 25.9 µM | HOP-92 7.43 µM | LOX IMVI 32.8 µM | CCRF-CEM > 10 µM | HL-60 > 10 µM | SK-OV-3 46.3 µM | A549 > 100 µM | SN12C 72.8 µM | SF-268 15.7 µM | MDA-MB-435 72.6 µM | SK-MEL-28 11.1 µM | OVCAR-3 39.9 µM | A498 > 100 µM | HT-29 7.93 µM | HOP-62 10.5 µM | EKVX 28.9 µM | DU-145 25.8 µM | SNB-19 5.09 µM | TK-10 29.1 µM | IGROV-1 > 100 µM | SF-539 48 µM | SW-620 24.2 µM | K562 15.6 µM | MDA-MB-231 17.7 µM | BT-549 46.7 µM | OVCAR-5 71.8 µM | MCF7 36 µM | NCI-H460 7.78 µM | UACC-257 > 100 µM | SK-MEL-5 24.8 µM
